Assay results from ChEMBL document CHEMBL3045156, “Synthesis and fungicidal evaluation of 2-arylphenyl ether-3-(1H-1,2,4-triazol-1-yl)propan-2-ol derivatives” (2009).

What was measured:
Type in all cases: functional
Conditions in all cases: read-out: GI
Mycosphaerella arachidis [1] = experiment: Fungicidal activity against Mycosphaerella arachidis assessed as growth inhibition at 50 ug/mL
Fusarium oxysporum [2] = experiment: Fungicidal activity against Fusarium oxysporum assessed as growth inhibition at 50 ug/mL
Fusarium graminearum [3] = experiment: Fungicidal activity against Fusarium graminearum assessed as growth inhibition at 50 ug/mL
Alternaria solani [4] = experiment: Fungicidal activity against Alternaria solani assessed as growth inhibition at 50 ug/mL
[5] = system: Botryosphaeria berengeriana; experiment: Fungicidal activity against Botryosphaeria berengeriana assessed as growth inhibition at 50 ug/mL
Alternaria solani [6] = experiment: Fungicidal activity against Alternaria solani assessed as growth inhibition at 1 ug/mL
Mycosphaerella arachidis [7] = experiment: Fungicidal activity against Mycosphaerella arachidis assessed as growth inhibition at 1 ug/mL
Fusarium graminearum [8] = experiment: Fungicidal activity against Fusarium graminearum assessed as growth inhibition at 1 ug/mL
Fusarium oxysporum [9] = experiment: Fungicidal activity against Fusarium oxysporum assessed as growth inhibition at 1 ug/mL
[10] = system: Botryosphaeria berengeriana; experiment: Fungicidal activity against Botryosphaeria berengeriana assessed as growth inhibition at 1 ug/mL
Fusarium oxysporum [11] = experiment: Fungicidal activity against Fusarium oxysporum assessed as growth inhibition at 5 ug/mL
Fusarium graminearum [12] = experiment: Fungicidal activity against Fusarium graminearum assessed as growth inhibition at 5 ug/mL
Alternaria solani [13] = experiment: Fungicidal activity against Alternaria solani assessed as growth inhibition at 5 ug/mL
[14] = system: Botryosphaeria berengeriana; experiment: Fungicidal activity against Botryosphaeria berengeriana assessed as growth inhibition at 5 ug/mL
Mycosphaerella arachidis [15] = experiment: Fungicidal activity against Mycosphaerella arachidis assessed as growth inhibition at 5 ug/mL

SMILES	inhibition of growth at 50 µg/mL (Mycosphaerella arachidis [1]) [%]	inhibition of growth at 50 µg/mL (Fusarium oxysporum [2]) [%]	inhibition of growth at 50 µg/mL (Fusarium graminearum [3]) [%]	inhibition of growth at 50 µg/mL (Alternaria solani [4]) [%]	inhibition of growth at 50 µg/mL [5] [%]	inhibition of growth at 1 µg/mL (Alternaria solani [6]) [%]	inhibition of growth at 1 µg/mL (Mycosphaerella arachidis [7]) [%]	inhibition of growth at 1 µg/mL (Fusarium graminearum [8]) [%]	inhibition of growth at 1 µg/mL (Fusarium oxysporum [9]) [%]	inhibition of growth at 1 µg/mL [10] [%]	inhibition of growth at 5 µg/mL (Fusarium oxysporum [11]) [%]	inhibition of growth at 5 µg/mL (Fusarium graminearum [12]) [%]	inhibition of growth at 5 µg/mL (Alternaria solani [13]) [%]	inhibition of growth at 5 µg/mL [14] [%]	inhibition of growth at 5 µg/mL (Mycosphaerella arachidis [15]) [%]
CCNCC(O)(Cn1cncn1)c1ccc(Oc2ccc(Cl)cc2)cc1Cl (stereo not given)	61.4	86.9	56.8	63.8	75.4										
CNCC(O)(Cn1cncn1)c1ccc(Oc2ccc(Cl)cc2)cc1Cl (stereo not given)	99	100	98	99	100	50.3	57.2	72.5	0	96					
COCC(O)(Cn1cncn1)c1ccc(Oc2ccc(Cl)cc2)cc1Cl (stereo not given)	99.1	100	98.7	100	100	98.7	78.6	63.2	89.9	99.2					
OC(CNC1CCCCC1)(Cn1cncn1)c1ccc(Oc2ccc(Cl)cc2)cc1Cl (stereo not given)	75.2	78.9	47.5	87.3	100										
CSCC(O)(Cn1cncn1)c1ccc(Oc2ccc(Cl)cc2)cc1Cl (stereo not given)	82.4	78.9	37.2	83.7	100										
OCCNCC(O)(Cn1cncn1)c1ccc(Oc2ccc(Cl)cc2)cc1Cl (stereo not given)	72.2	100	37.3	98.5	97.7										
CONCC(O)(Cn1cncn1)c1ccc(Oc2ccc(Cl)cc2)cc1Cl (stereo not given)	98.4	100	97.3	100	100	61.3	55.3	18.2	0	84.2					
COCC(O)(Cn1cncn1)c1ccc(Oc2ccc(F)cc2)cc1Cl (stereo not given)	100	100	100	100	100	96.9	76.2	57.2	82.7	89.5					
CNCC(O)(Cn1cncn1)c1ccc(Oc2ccc(F)cc2)cc1Cl (stereo not given)	100	100	100	100	100	86.7	72.1	67.2	68.7	74.6					
OC(Cn1ccnc1)(Cn1cncn1)c1ccc(Oc2ccc(F)cc2)cc1Cl (stereo not given)	100	57.1	84.3	73.2	87.9										
OC(Cn1cncn1)(Cn1cncn1)c1ccc(Oc2ccc(F)cc2)cc1Cl	100	100	95	97.5	95.9	75	39.5	21.8	90	49.3					
CC(O)(Cn1cncn1)c1ccc(Oc2ccc(Cl)cc2)cc1Cl (stereo not given)	100	85.3	100	78.2	100										
CC(O)(Cn1cncn1)c1ccc(Oc2ccc(F)cc2)cc1Cl (stereo not given)	99	99	98	100	100	20	37.5	0	17.9	48.7					
OC(/C=C/c1ccccc1)(Cn1cncn1)c1ccc(Oc2ccc(Cl)cc2)cc1Cl (stereo not given)	100	68.7	64.3	81.2	67.9										
OC(/C=C/c1ccc(Cl)cc1)(Cn1cncn1)c1ccc(Oc2ccc(Cl)cc2)cc1Cl (stereo not given)	95	57.1	77.2	76.8	64.1										
OC(/C=C/c1ccc(Cl)cc1Cl)(Cn1cncn1)c1ccc(Oc2ccc(Cl)cc2)cc1Cl (stereo not given)	97.8	50.9	37.2	54.4	58.7										
OC(/C=C/c1c(Cl)cccc1Cl)(Cn1cncn1)c1ccc(Oc2ccc(Cl)cc2)cc1Cl (stereo not given)	92.4	51.8	50.3	60.7	79.3										
Cc1ccc(/C=C/C(O)(Cn2cncn2)c2ccc(Oc3ccc(Cl)cc3)cc2Cl)cc1 (stereo not given)	95	60.2	51.8	63.2	59.3										
COc1ccc(/C=C/C(O)(Cn2cncn2)c2ccc(Oc3ccc(Cl)cc3)cc2Cl)cc1 (stereo not given)	91.3	55.4	61.4	55	64.5										
OC(/C=C/c1ccc(Cl)c(Cl)c1)(Cn1cncn1)c1ccc(Oc2ccc(Cl)cc2)cc1Cl (stereo not given)	100	57.1	53.6	66.7	64.6										
OC(/C=C/c1ccccc1F)(Cn1cncn1)c1ccc(Oc2ccc(Cl)cc2)cc1Cl (stereo not given)	99.3	65.9	61.4	55	52.1										
OC(Cn1cncn1)(Cn1cncn1)c1ccc(Oc2ccc(Cl)cc2)cc1Cl	100	99	100	99	100	58.6	88.1	82.6	62.5	90.3	80.9	100	84.2	91	100
OC(Cn1ccnc1)(Cn1cncn1)c1ccc(Oc2ccc(Cl)cc2)cc1Cl (stereo not given)	100	95	71.4	99	99										
OC(CN1CCOCC1)(Cn1cncn1)c1ccc(Oc2ccc(Cl)cc2)cc1Cl (stereo not given)	60	34.4	78.3	55.2	65.2										
OC(Cn1cncn1)(Cn1nnc2ccccc21)c1ccc(Oc2ccc(Cl)cc2)cc1Cl (stereo not given)	62.7	48.7	45.4	53.3	55.6										
OCC(O)(Cn1cncn1)c1ccc(Oc2ccc(Cl)cc2)cc1Cl (stereo not given)	100	77.1	99	99	99										
CN(C)CC(O)(Cn1cncn1)c1ccc(Oc2ccc(Cl)cc2)cc1Cl (stereo not given)	97.2	100	96.9	99.1	100	18.6	0	4.2	0	27.7					
CC1COC(Cn2cncn2)(c2ccc(Oc3ccc(Cl)cc3)cc2Cl)O1 (stereo not given) [DIFENOCONAZOLE]	100	99.9	100	99.2	100	95	56.7	73.9	53.1	69.7					
CC(C)(C)C(O)(CCc1ccc(Cl)cc1)Cn1cncn1 (stereo not given) [TEBUCONAZOLE]	100	100	100	100	100	65.5	91	86.9	65.6	68.2					
